Test results reported in US10316020B2, “Indane derivatives and the use thereof as soluble guanylate cyclase activators” (NOVARTIS AG, priority 2015, dated 2019).

molecular target: T1, soluble guanylate cyclase (GUCYA3/GUCYB3) overexpressed in CHO cells (Homo sapiens, UniProt Q02108+Q02153); assay: CHO cellular assay (cGMP production, HTRF); type: cell-based; conditions: CHO GUCY clone 8E10; assay buffer with 1 mM IBMX, 20 uM ODQ; 1 h at room temperature; cGMP HTRF; quantification limit 0.0005 μM; read-out: Mean EC50
T1 construct: expressed in transfected cells
T1 sequence (Q02108 1-690 partner): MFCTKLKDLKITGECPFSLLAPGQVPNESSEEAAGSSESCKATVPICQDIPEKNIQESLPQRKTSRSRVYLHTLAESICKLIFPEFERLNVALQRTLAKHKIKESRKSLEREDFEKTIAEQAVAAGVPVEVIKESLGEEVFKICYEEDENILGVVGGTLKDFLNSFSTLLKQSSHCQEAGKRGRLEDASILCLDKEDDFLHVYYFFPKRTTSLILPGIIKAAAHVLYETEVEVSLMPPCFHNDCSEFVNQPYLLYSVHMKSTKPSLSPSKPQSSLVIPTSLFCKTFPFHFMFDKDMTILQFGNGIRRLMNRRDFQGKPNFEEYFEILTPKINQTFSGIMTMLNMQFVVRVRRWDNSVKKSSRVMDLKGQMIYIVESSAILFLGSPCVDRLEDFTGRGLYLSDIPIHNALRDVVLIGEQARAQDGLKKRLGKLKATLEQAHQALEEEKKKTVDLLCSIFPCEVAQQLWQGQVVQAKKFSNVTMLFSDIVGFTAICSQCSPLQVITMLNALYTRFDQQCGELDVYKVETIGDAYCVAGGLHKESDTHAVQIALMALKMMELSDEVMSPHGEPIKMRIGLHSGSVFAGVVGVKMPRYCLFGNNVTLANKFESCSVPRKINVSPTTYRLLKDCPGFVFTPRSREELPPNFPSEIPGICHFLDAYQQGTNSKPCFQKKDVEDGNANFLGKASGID
T1 sequence (Q02153 1-619): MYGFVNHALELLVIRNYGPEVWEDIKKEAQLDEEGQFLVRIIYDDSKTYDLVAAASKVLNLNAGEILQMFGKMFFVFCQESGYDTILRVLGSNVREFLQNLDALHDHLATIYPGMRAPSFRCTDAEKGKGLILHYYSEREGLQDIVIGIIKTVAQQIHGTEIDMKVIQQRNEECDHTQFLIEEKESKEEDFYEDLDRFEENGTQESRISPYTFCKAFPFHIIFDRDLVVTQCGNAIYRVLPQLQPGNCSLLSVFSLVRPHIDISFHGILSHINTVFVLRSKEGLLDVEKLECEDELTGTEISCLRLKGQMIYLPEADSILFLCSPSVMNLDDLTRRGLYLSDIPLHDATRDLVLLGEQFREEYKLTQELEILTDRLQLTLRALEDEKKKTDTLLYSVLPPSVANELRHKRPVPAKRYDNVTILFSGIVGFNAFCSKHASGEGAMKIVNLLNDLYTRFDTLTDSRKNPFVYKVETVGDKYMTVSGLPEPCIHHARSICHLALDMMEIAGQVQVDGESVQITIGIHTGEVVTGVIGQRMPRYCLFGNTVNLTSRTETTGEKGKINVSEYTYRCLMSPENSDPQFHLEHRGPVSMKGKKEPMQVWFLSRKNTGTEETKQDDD
Description: Chinese hamster ovary (CHO) cells overexpressing soluble guanylate cyclase were generated to test the effect of sGC activators in a cellular context. Human cDNAs for GUCYA3 (RefSeq: NM_000856.3) and GUCYB3 (RefSeq: NM_000857.1) were amplified by PCR from a HUVEC (Human Umbilical Vein Endothelial Cells) cDNA library and cloned into mammalian expression vectors. CHO K1 cells (ATCC CCL-61) were transfected using Lipofectamine 2000 following manufacturer's instructions and stably expressing clones were identified by antibiotic selection. CHO GUCY clone 8E10 was used for subsequent experiments.
Cells were seeded at a density of 3000 cells/well in white 384-well proxyplates (Perkin Elmer) and incubated overnight, then the medium was removed and cells were washed with assay buffer (HBSS, 0.1% BSA, 1 mM IBMX, 20 uM ODQ). sGC activators were serially diluted in DMSO, then diluted in assay buffer prior to adding to cells (10 ul/well, final DMSO concentration 0.5%). Cells were incubated with compounds for 1 h at room temperature, then assayed for cGMP production using Cisbio cGMP HTRF kit (62GM2PEC) according to manufacturer's instructions.
The EC50s are calculated based on the amount of cGMP interpolated from the standard curve, using a 4-parameter sigmoidal dose-response.
Compounds of invention are active on sGC activation. Data in Table 1 collected using the assay of Biological Example 1.

Row | EC50 [nM] | SMILES
1 | 36 | CCc1nc(NC2CCc3cccc(-c4cccc(-n5ncc(C(=O)O)c5OC)c4)c32)ccc1C1=CCN(C(=O)[C@H](C)O)CC1 (single isomer, unassigned) [Example 11A, 1-(3-((S or R)-3-((2-Ethyl-1′-((S)-2-hydroxypropanoyl)-1′,2′,3′,6′-tetrahydro-[3,4′-bipyridin]-6-yl)amino)-2,3-dihydro-1H-inden-4-yl)phenyl)-5-methoxy-1H-pyrazole-4-carboxylic acid]
2 | 1.4 | CCc1nc(NC2CCc3cccc(-c4cccc(-n5ncc(C(=O)O)c5OC)c4)c32)ccc1C1=CCN(C(=O)[C@H](C)O)CC1 (single isomer, unassigned) [Example 11B, 1-(3-((R or S)-3-((2-ethyl-1′-((S)-2-hydroxypropanoyl)-1′,2′,3′,6′-tetrahydro-[3,4′-bipyridin]-6-yl)amino)-2,3-dihydro-1H-inden-4-yl)phenyl)-5-methoxy-1H-pyrazole-4-carboxylic acid]
3 | < 0.5 | CCc1cc(NC2CCc3cccc(-c4ccc(C)c(-n5ncc(C(=O)O)c5OC)c4)c32)ccc1C1CCN(C(=O)C2CC2)CC1 (single isomer, unassigned; (+)) [Example 7A, (+)-1-(5-(3-((4-(1-(Cyclopropanecarbonyl)piperidin-4-yl)-3-ethylphenyl)amino)-2,3-dihydro-1H-inden-4-yl)-2-methylphenyl)-5-methoxy-1H-pyrazole-4-carboxylic acid]
4 | < 0.5 | CCc1nc(NC2CCc3cccc(-c4cccc(-n5ncc(C(=O)O)c5OC)n4)c32)ccc1C1=CCN(C(=O)C2CC2)CC1 (single isomer, unassigned; (+)) [Example 16A, (+)-1-(6-(3-((1′-(Cyclopropanecarbonyl)-2-ethyl-1′,2′,3′,6′-tetrahydro-[3,4′-bipyridin]-6-yl)amino)-2,3-dihydro-1H-inden-4-yl)pyridin-2-yl)-5-methoxy-1H-pyrazole-4-carboxylic acid]
5 | 110 | CCc1cc(NC2CCc3cccc(-c4cccc(-n5ncc(C(=O)O)c5OC)c4)c32)ccc1C1CCN(C(=O)[C@H](C)O)CC1 (single isomer, unassigned; (-)) [Example 4B]
6 | 2 | CCc1cc(NC2CCc3cccc(-c4ccc(C)c(-n5ncc(C(=O)O)c5OC)c4)c32)ccc1C1CCN(C(=O)C2CC2)CC1 (single isomer, unassigned; (-)) [Example 7B, (−)-1-(5-(3-((4-(1-(Cyclopropanecarbonyl)piperidin-4-yl)-3-ethylphenyl)amino)-2,3-dihydro-1H-inden-4-yl)-2-methylphenyl)-5-methoxy-1H-pyrazole-4-carboxylic acid]

The remaining lines, values behind:

Row | SMILES | EC50 [nM]
7 | CCc1nc(NC2CCc3cccc(-c4cccc(-n5ncc(C(=O)O)c5OC)n4)c32)ccc1C1=CCN(C(=O)[C@H](C)O)CC1 (single isomer, unassigned) [Example 17A, 1-(6-((R or S)-3-((2-ethyl-1′-((S)-2-hydroxypropanoyl)-1′,2′,3′,6′-tetrahydro-[3,4′-bipyridin]-6-yl)amino)-2,3-dihydro-1H-inden-4-yl)pyridin-2-yl)-5-methoxy-1H-pyrazole-4-carboxylic acid] | 71
8 | CCc1nc(NC2CCc3cccc(-c4cccc(-n5ncc(C(=O)O)c5OC)n4)c32)ccc1C1=CCN(C(=O)[C@H](C)O)CC1 (single isomer, unassigned) [Example 17B, 1-(6-((S or R)-3-((2-ethyl-1′-((S)-2-hydroxypropanoyl)-1′,2′,3′,6′-tetrahydro-[3,4′-bipyridin]-6-yl)amino)-2,3-dihydro-1H-inden-4-yl)pyridin-2-yl)-5-methoxy-1H-pyrazole-4-carboxylic acid] | 3.5
9 | CCc1cc(NC2CCc3cccc(-c4ccc(OC)c(-n5ncc(C(=O)O)c5OC)c4)c32)ccc1C1CCN(C(=O)C2CC2)CC1 (single isomer, unassigned; (+)) [Example 8A, (+)-1-(5-(3-((4-(1-(Cyclopropanecarbonyl)piperidin-4-yl)-3-ethylphenyl)amino)-2,3-dihydro-1H-inden-4-yl)-2-methoxyphenyl)-5-methoxy-1H-pyrazole-4-carboxylic acid] | < 0.5
10 | CCc1cc(NC2CCc3cccc(-c4cccc(-n5ncc(C(=O)O)c5N)c4)c32)ccc1C1CCN(C(=O)C2CC2)CC1 (single isomer, unassigned; (+)) [Example 9A, (+)-5-Amino-1-(3-(3-((4-(1-(cyclopropanecarbonyl)piperidin-4-yl)-3-ethylphenyl)amino)-2,3-dihydro-1H-inden-4-yl)phenyl)-1H-pyrazole-4-carboxylic acid] | 4
11 | CCc1nc(NC2CCc3cccc(-c4cccc(-n5ncc(C(=O)O)c5OC)c4)c32)ccc1C1=CCN(C(=O)C2CC2)CC1 (single isomer, unassigned; (+)) [Example 10A, (+)-1-(3-(3-((1′-(Cyclopropanecarbonyl)-2-ethyl-1′,2′,3′,6′-tetrahydro-[3,4′-bipyridin]-6-yl)amino)-2,3-dihydro-1H-inden-4-yl)phenyl)-5-methoxy-1H-pyrazole-4-carboxylic acid] | < 0.5
12 | CCc1nc(NC2CCc3cccc(-c4cccc(-n5ncc(C(=O)O)c5NC)c4)c32)ccc1C1=CCN(C(=O)C2CC2)CC1 (single isomer, unassigned; (+)) [Example 22A, (+)-1-(3-(3-((1′-(Cyclopropanecarbonyl)-2-ethyl-1′,2′,3′,6′-tetrahydro-[3,4′-bipyridin]-6-yl)amino)-2,3-dihydro-1H-inden-4-yl)phenyl)-5-(methylamino)-1H-pyrazole-4-carboxylic acid] | < 0.5
13 | CCc1cc(NC2CCc3cccc(-c4ccc(OC)c(-n5ncc(C(=O)O)c5OC)c4)c32)ccc1C1CCN(C(=O)C2CC2)CC1 (single isomer, unassigned; (-)) [Example 8B, (−)-1-(5-(3-((4-(1-(Cyclopropanecarbonyl)piperidin-4-yl)-3-ethylphenyl)amino)-2,3-dihydro-1H-inden-4-yl)-2-methoxyphenyl)-5-methoxy-1H-pyrazole-4-carboxylic acid] | 86
14 | CCc1cc(NC2CCc3cccc(-c4cccc(-n5ncc(C(=O)O)c5N)c4)c32)ccc1C1CCN(C(=O)C2CC2)CC1 (single isomer, unassigned; (-)) [Example 9B, (−)-5-Amino-1-(3-(3-((4-(1-(cyclopropanecarbonyl)piperidin-4-yl)-3-ethylphenyl)amino)-2,3-dihydro-1H-inden-4-yl)phenyl)-1H-pyrazole-4-carboxylic acid] | 58
15 | CCc1nc(NC2CCc3cccc(-c4cccc(-n5ncc(C(=O)O)c5OC)c4)c32)ccc1C1=CCN(C(=O)C2CC2)CC1 (single isomer, unassigned; (-)) [Example 10B, (−)-1-(3-(3-((1′-(Cyclopropanecarbonyl)-2-ethyl-1′,2′,3′,6′-tetrahydro-[3,4′-bipyridin]-6-yl)amino)-2,3-dihydro-1H-inden-4-yl)phenyl)-5-methoxy-1H-pyrazole-4-carboxylic acid] | 149
